Experimental data from PubChem BioAssay AID248 (DTP/NCI, 2004).
“And” between values parts separate entries of the source, which are not always exact repeats. Identical values can stand only once. Toxic doses and inconclusive results are not listed. Rule as the data show it: active = T/C of 150% or more; inactive = T/C below 125%.

System: L1210 leukemia ip in BDF1 mice, survival T/C
Test: NCI In Vivo Anticancer Drug Screen. Data for tumor model L1210 Leukemia (intraperitoneal) in B6D2F1 (BDF1) mice
Conditions: endpoint: mean survival time, higher = longer survival
Summary of the method: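 Ratio derived from survival: compound-dosed mice over vehicle-dosed mice, all bearing a transplantable tumor.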

[1] = dose: 100.0 mg/kg/injection, schedule: Q04DX002 (ip), vehicle: saline
[2] = dose: 100.0 mg/kg/injection, schedule: Q04DX003 (ip), vehicle: Klucel (hydroxypropylcellulose) (HPC)
[3] = dose: 200.0 mg/kg/injection, schedule: Q04DX003 (ip), vehicle: Klucel (hydroxypropylcellulose) (HPC)
[4] = dose: 400.0 mg/kg/injection, schedule: Q04DX003 (ip), vehicle: Klucel (hydroxypropylcellulose) (HPC)
[5] = dose: 100.0 mg/kg/injection, schedule: Q01DX001 (ip), vehicle: saline
[6] = dose: 200.0 mg/kg/injection, schedule: Q01DX001 (ip), vehicle: saline
[7] = dose: 50.0 mg/kg/injection, schedule: Q01DX009 (ip), vehicle: saline with Tween-80
[8] = dose: 100.0 mg/kg/injection, schedule: Q01DX009 (ip), vehicle: saline with Tween-80
[9] = dose: 100.0 mg/kg/injection, schedule: Q04DX003 (ip), vehicle: saline with Tween-80
[10] = dose: 200.0 mg/kg/injection, schedule: Q04DX003 (ip), vehicle: saline with Tween-80
[11] = dose: 100.0 mg/kg/injection, schedule: Q04DX003 (ip), vehicle: saline
[12] = dose: 200.0 mg/kg/injection, schedule: Q04DX003 (ip), vehicle: saline
[13] = dose: 400.0 mg/kg/injection, schedule: Q04DX003 (ip), vehicle: saline
[14] = dose: 100.0 mg/kg/injection, schedule: Q01DX009 (ip), vehicle: saline
[15] = dose: 200.0 mg/kg/injection, schedule: Q01DX009 (ip), vehicle: saline
[16] = dose: 200.0 mg/kg/injection, schedule: Q04DX002 (ip), vehicle: saline
[17] = dose: 100.0 mg/kg/injection, schedule: Q01DX009 (ip), vehicle: Klucel (hydroxypropylcellulose) (HPC)
[18] = dose: 200.0 mg/kg/injection, schedule: Q01DX009 (ip), vehicle: Klucel (hydroxypropylcellulose) (HPC)
[19] = dose: 400.0 mg/kg/injection, schedule: Q01DX009 (ip), vehicle: Klucel (hydroxypropylcellulose) (HPC)

Measured: T/C

Oc1c(Cl)c(Cl)cc(Cl)c1Cc1c(Cl)cc(Cl)c(Cl)c1[O][Pb]([c]1ccccc1)([c]1ccccc1)[c]1ccccc1
inactive: dose: 6.25 mg/kg/injection, schedule: Q01DX009 (ip), vehicle: saline 101 % of control | dose: 12.5 mg/kg/injection, schedule: Q01DX009 (ip), vehicle: saline 95 % of control | dose: 25.0 mg/kg/injection, schedule: Q04DX002 (ip), vehicle: saline 86 % of control | [1] 97 % of control

Cc1c2ccccc2c(C)c2c1cc(CO)c1ccccc12
inactive: dose: 100.0 mg/kg/injection, schedule: Q04DX002 (ip), vehicle: Klucel (hydroxypropylcellulose) (HPC) 97 % of control | dose: 200.0 mg/kg/injection, schedule: Q04DX002 (ip), vehicle: Klucel (hydroxypropylcellulose) (HPC) 104 % of control | dose: 400.0 mg/kg/injection, schedule: Q04DX002 (ip), vehicle: Klucel (hydroxypropylcellulose) (HPC) 89 % of control

CC(=O)C1=CCCCC1
inactive: [2] 96 % of control | [3] 105 % of control | [4] 93 % of control

CCCCSc1n[nH]c(=O)[nH]c1=S
inactive: [5] 91 % of control | [6] 96 % of control

Cc1[o+]c(C)c2c(c1C)-c1ccccc1C2=O
inactive: [7] 93 % of control | [8] 96 % of control | [9] 98 % of control | dose: 200.0 mg/kg/injection, schedule: Q01DX009 (ip), vehicle: saline with Tween-80 105 % of control | [10] 98 % of control | dose: 400.0 mg/kg/injection, schedule: Q04DX003 (ip), vehicle: saline with Tween-80 98 % of control

COc1ccc(CNCC(=O)OCc2ccccc2)cc1
inactive: [7] 91 % of control | [8] 100 % of control | [9] 102 % of control | [10] 101 % of control

CCCCCC(=C/c1ccccc1)/C=N/N=C(N)N
inactive: dose: 15.0 mg/kg/injection, schedule: Q01DX Z (ip), vehicle: saline 93 % of control | dose: 30.0 mg/kg/injection, schedule: Q01DX Z (ip), vehicle: saline 104 % of control | dose: 30.0 mg/kg/injection, schedule: Q01DX Z (oral), vehicle: saline 94 % of control | dose: 60.0 mg/kg/injection, schedule: Q01DX Z (ip), vehicle: saline 98 % of control | dose: 60.0 mg/kg/injection, schedule: Q01DX Z (oral), vehicle: saline 90 % of control | dose: 120.0 mg/kg/injection, schedule: Q01DX Z (oral), vehicle: saline 94 % of control

C=CCNC(=S)C(C(=O)OC)C(=O)OC
inactive: [11] 103 % of control | [12] 100 % of control | [13] 100 % of control

CN(C)C(C)(C)CO
inactive: [14] 98 % of control | [11] 96 % of control | [15] 98 % of control | [12] 98 % of control | [13] 101 % of control

C/C=C(\Nc1ccc([N+](=O)[O-])cc1[N+](=O)[O-])C(=O)OC
inactive: [5] 101 % of control | [6] 98 % of control | dose: 400.0 mg/kg/injection, schedule: Q01DX001 (ip), vehicle: saline 101 % of control

ClCCN1CCOC1=Nc1ccccc1
inactive: dose: 100.0 mg/kg/injection, schedule: Q01DX001 (ip), vehicle: other 105 % of control | dose: 200.0 mg/kg/injection, schedule: Q01DX001 (ip), vehicle: other 105 % of control | dose: 400.0 mg/kg/injection, schedule: Q01DX001 (ip), vehicle: other 100 % of control

COc1cc(N=Nc2ccccc2OC)ccc1N
inactive: dose: 50.0 mg/kg/injection, schedule: Q01DX001 (ip), vehicle: carboxymethylcellulose (CMC) 97 % of control | dose: 100.0 mg/kg/injection, schedule: Q01DX001 (ip), vehicle: carboxymethylcellulose (CMC) 109 % of control | dose: 200.0 mg/kg/injection, schedule: Q01DX001 (ip), vehicle: carboxymethylcellulose (CMC) 106 % of control | dose: 400.0 mg/kg/injection, schedule: Q01DX001 (ip), vehicle: carboxymethylcellulose (CMC) 101 % of control

CCCCCCC#CC(=O)OCC
inactive: [1] 89 % of control | [16] 104 % of control

O=C1CC(c2ccc(O)cc2)CC(=O)C1C(C1CC=CCC1)N(CCCl)CCCl (stereo unspecified)
inactive: [17] 105 % of control and 104 % of control | [2] 103 % of control | [18] 105 % of control and 100 % of control | [3] 106 % of control and 104 % of control | [19] 110 % of control and 100 % of control | [4] 110 % of control and 101 % of control

C/C=C\C(=O)O
inactive: [14] 101 % of control | [15] 96 % of control

OC1(Cc2nccc3ccccc23)CCN(Cc2ccccc2)CC1
inactive: dose: 100.0 mg/kg/injection, schedule: Q04DX003 (ip), vehicle: carboxymethylcellulose (CMC) 89 % of control | dose: 200.0 mg/kg/injection, schedule: Q04DX003 (ip), vehicle: carboxymethylcellulose (CMC) 98 % of control

COc1ccc(NC(=O)c2ccccc2Cl)cc1
inactive: [17] 97 % of control | [2] 105 % of control | [18] 95 % of control | [3] 97 % of control | [19] 95 % of control | [4] 96 % of control

O=C1OC(=O)C2C1C1C3C=CC3C1C21C=C1 (stereo unspecified)
inactive: dose: 100.0 mg/kg/injection, schedule: Q01DX009 (ip), vehicle: other 100 % of control | [11] 96 % of control | dose: 200.0 mg/kg/injection, schedule: Q01DX009 (ip), vehicle: other 109 % of control | [12] 93 % of control | dose: 400.0 mg/kg/injection, schedule: Q01DX009 (ip), vehicle: other 110 % of control | [13] 100 % of control

O=C(O)CNC(=O)N1CCCC1
inactive: [1] 90 % of control | [16] 96 % of control | dose: 400.0 mg/kg/injection, schedule: Q04DX002 (ip), vehicle: saline 104 % of control

N#CC1(Cc2ccccc2)c2ccccc2-c2ccccc21
inactive: [2] 98 % of control | [3] 89 % of control | [4] 91 % of control
